These results are taken from patent US7060822B1, “2-pyrazolin-5-ones” (Abbott GmbH & Co. KG, priority 1999, dated 2006).

Where only a bound is given, the exact number is not on record here.

By melting point is commonly meant the temperature, or range, at which the solid turns liquid. `CCOC(=O)c1c(C)[nH]c(C=C2C(=O)NN=C2c2ccccc2)c1C` [Example 145, 4-[(3,5-Dimethyl-4-ethoxycarbonylpyrrol-2-yl)methylene]-3-phenyl-2-pyrazolin-5-one]: the melting point is 216 to 217 °C.
Next, `Cc1cc(C2=NNC(=O)C2=Cc2[nH]c(C)c(CN(C)C)c2C)no1` [Example 177, 4-[(3,5-Dimethyl-4-dimethylaminomethylpyrrol-2-yl)methylene]-3-(5-methyl-3-isoxazolyl)-2-pyrazolin-5-one]: 242 to 244 °C; `O=C1NN=C(CCc2ccc(O)cc2)C1=Cc1cc2ccccc2[nH]1` [Example 307, 3-(4-Hydroxyphenylethyl)-4-[(indol-2-yl)methylene]-2-pyrazolin-5-one]: 242 to 245 °C; `O=C1NN=C(COc2ccccc2)C1=Cc1c[nH]c2ccccc12` [Example 213, 4-[(Indol-3-yl)methylene]-3-phenyloxymethyl-2-pyrazolin-5-one]: 284 to 286 °C.
For the compound `CCOC(=O)c1c[nH]c(C=C2C(=O)NN=C2OCC)c1` [Example 148, 3-Ethoxy-4-[(4-ethoxycarbonylpyrrol-2-yl)methylene]-2-pyrazolin-5-one], the melting point fell in the range of 212 to 216 °C.
Regarding `NC(=O)c1ccc(CCC2=NNC(=O)C2=Cc2cc3ccccc3[nH]2)cc1` [Example 310, 3-(4-Carbamoylphenylethyl)-4-[(indol-2-yl)methylene]-2-pyrazolin-5-one], the melting point was 263 to 265 °C.
`COc1ccc(OCC2=NNC(=O)C2=Cc2ccc[nH]2)cc1` [Example 3, 3-(4-Methoxyphenyloxymethyl)-4-[(pyrrol-2-yl)methylene]-2-pyrazolin-5-one] yielded a melting point of 177 to 180 °C.
With `COc1ccc(CCC2=NNC(=O)C2=Cc2c[nH]c3ccccc23)cc1` [Example 231, 4-[(Indol-3-yl)methylene]-3-(4-methoxyphenylethyl)-2-pyrazolin-5-one], the melting point was 266 to 268 °C.
Next, `COc1cccc(CC2=NNC(=O)C2=Cc2c[nH]c3ccccc23)c1` [Example 226, 4-[(Indol-3-yl)methylene]-3-(3-methoxybenzyl)-2-pyrazolin-5-one]: 288 to 290 °C.
Next, `O=C1NN=C(C2CC2)C1=Cc1cc2cc([N+](=O)[O-])ccc2[nH]1` [Example 318, 3-Cyclopropyl-4-[(5-nitroindol-2-yl)methylene]-2-pyrazolin-5-one]: 316 to 320 °C.
`COc1ccc(CC2=NNC(=O)C2=Cc2c[nH]c3ncccc23)cc1` [Example 338, 4-[(7-Azaindol-3-yl)methylene]-3-(4-methoxybenzyl)-2-pyrazolin-5-one] returned a melting point of 273 to 276 °C.
Next, `O=C1NN=C(COc2ccc(Cl)cc2)C1=Cc1ccc[nH]1` [Example 5, 3-(4-Chlorophenyloxymethyl)-4-[(pyrrol-2-yl)methylene]-2-pyrazolin-5-one]: 218 to 222 °C; `Cc1[nH]c(C=C2C(=O)NN=C2c2cnccn2)c(C)c1CN.O=C(O)/C=C\C(=O)O` [Example 179, 4-[(4-Aminomethyl-3,5-dimethylpyrrol-2-yl)methylene]-3-pyrazinyl-2-pyrazolin-5-one maleate]: 205 to 208 °C.
`O=C1NN=C(C2CC2)C1=Cc1cccs1` [Example 367, 3-Cyclopropyl-4-[(thien-2-yl)methylene]-2-pyrazolin-5-one] showed a melting point of 275 to 277 °C.
The same measure for `COc1ccc(NC(=O)CC2=NNC(=O)C2=Cc2c[nH]c3ccccc23)cc1` [Example 255, 4-[(Indol-3-yl)methylene]-3-(4-methoxyphenylaminocarbonylmethyl)-2-pyrazolin-5-one]: above 300 °C; for `Cc1[nH]c(C=C2C(=O)NN=C2c2cnccn2)c(C)c1CN(C)C` [Example 121, 4-[(3,5-Dimethyl-4-dimethylaminomethylpyrrol-2-yl)methylene]-3-pyrazinyl-2-pyrazolin-5-one]: 220 to 222 °C; for `CC(C)OC1=NNC(=O)C1=Cc1cccn1CCCCO` [Example 38, 4-{[1-(4-Hydroxybutyl)pyrrol-2-yl]methylene}-3-isopropoxy-2-pyrazolin-5-one]: 138 to 140 °C.
Next, `CCc1c(C)[nH]c(C=C2C(=O)NN=C2CCc2ccccc2)c1C` [Example 37, 4-[(3,5-Dimethyl-4-ethylpyrrol-2-yl)methylene]-3-phenylethyl-2-pyrazolin-5-one]: 168 to 170 °C; `Cc1c(CCC(=O)O)c[nH]c1C=C1C(=O)NN=C1C1CC1` [Example 99, 4-{[4-(2-Carboxyethyl)-3-methylpyrrol-2-yl]methylene}-3-cyclopropyl-2-pyrazolin-5-one]: 290 °C (dec.).
For the compound `Cc1[nH]c(C=C2C(=O)NN=C2C2CC2)c(C)c1C(=O)O` [Example 95, 4-[(4-Carboxy-3,5-dimethylpyrrol-2-yl)methylene]-3-cyclopropyl-2-pyrazolin-5-one], the melting point was 312 °C (dec.).
Next, `Cc1[nH]c(C=C2C(=O)NN=C2OC(C)C)c(C)c1C(=O)O` [Example 83, 4-[(4-Carboxy-3,5-dimethylpyrrol-2-yl)methylene]-3-isopropoxy-2-pyrazolin-5-one]: above 300 °C; `Cc1c[nH]c(C=C2C(=O)NN=C2c2cnccn2)c1C` [Example 98, 4-[(3,4-dimethylpyrrol-2-yl)methylene]-3-pyrazinyl-2-pyrazolin-5-one]: 245 to 250 °C; `O=C1NN=C(C2CCC2)C1=Cc1c[nH]c2ncccc12` [Example 345, 4-[(7-Azaindol-3-yl)methylene]-3-cyclobutyl-2-pyrazolin-5-one]: 300 to 302 °C.
As to `O=C1NN=C(CCc2ccc(C(=O)O)cc2)C1=Cc1cc2ccccc2[nH]1` [Example 320, 3-(4-Carboxyphenylethyl)-4-[(indol-2-yl)methylene]-2-pyrazolin-5-one], the melting point is above 300 °C.
Consider `Cc1[nH]c(C=C2C(=O)NN=C2c2cnccn2)c(C)c1C(=O)CCCl` [Example 175, 4-{[4-(3-Chloropropionyl)-3,5-dimethylpyrrol-2-yl]methylene}-3-pyrazinyl-2-pyrazolin-5-one], for which the melting point is 213 °C (dec.).
Next, `O=C1NN=C(c2nc3ccccc3s2)C1=Cc1c[nH]c2ccccc12` [Example 268, 3-(Benzothiazol-2-yl)-4-[(indol-3-yl)methylene]-2-pyrazolin-5-one]: above 300 °C; `COc1ccc(CCC2=NNC(=O)C2=Cc2ccc[nH]2)cc1` [Example 23, 3-(4-Methoxyphenylethyl)-4-[(pyrrol-2-yl)methylene]-2-pyrazolin-5-one]: 137 to 139 °C.
`Cc1ccc(CC2=NNC(=O)C2=Cc2ccc[nH]2)cc1` [Example 14, 3-(4-Methylbenzyl)-4-[(pyrrol-2-yl)methylene]-2-pyrazolin-5-one] showed a melting point of 254 to 255 °C.
The same measure for `Cc1[nH]c(C=C2C(=O)NN=C2c2cnccn2)c(C)c1CN(C)C.O=C(O)/C=C\C(=O)O` [Example 122, 4-[(3,5-Dimethyl-4-dimethylaminomethylpyrrol-2-yl)methylene]-3-pyrazinyl-2-pyrazolin-5-one maleate]: 206 to 210 °C.
